Measured values as given in patent US7417175B2, “Interstitial prostatism model animal” (Taiho Pharmaceuticals Co., Ltd., priority 2001, dated 2008).

Experiments:
[1] = tested on: subcutaneously-implanted, rat fetal urogenital sinus-derived tissues; test: Inhibition of weight increase of rat fetal urogenital sinus-derived tissue implanted subcutaneously in nude mice (prostatic stromal hyperplasia model); format: in vivo, male nude mice (BALB/cA Jcl-nu); conditions: for Rate of inhibition (%) to weight increase of implanted tissue: tissue weighed day 14, vs solvent group
Text: Under ether anesthesia, fetuses were removed from female SD rats that were 21 days pregnant. From the removed male fetuses, urogenital sinuses were removed also under ether anesthesia while observing through a stereoscopic microscope. The urogenital sinuses were stored in a sterilized culture medium until implantation. The abdominal skin adjacent the left femoral region of 6-week old BALB/c male nude mice was cut open about 2 to 3 mm under ether anesthesia. A single rat fetal urogenital sinus obtained in (1) above was subcutaneously implanted after incision using a forceps and the incision was sutured. Thereafter, these nude mice were reared in clean racks (Rat Bracket Cages, 3 to 4 mice/cage) for 2 weeks under the following conditions: • Temperature: 20 to 26° C. • Humidity: 30 to 70% • Lighting hours: 12-hour light-dark cycle; light-on at 8 am and light-out at 8 pm • Feed and feeding method: solid feed for mouse, MF (irradiated), ad libitum • Water and watering method: tap water, ad libitum (3) Weighing of Implanted Tissue (Rat Fetal Urogenital Sinus-derived Tissue) Animal models for prostatic stromal hyperplasia of the invention were prepared according to the methods described in Example 1 (1) and (2) by implanting the urogenital sinuses of rat fetuses (21 day-old) beneath the abdominal skin of 6-week-old male nude mice (BALB/cA Jcl-nu). For 2 weeks from the implantation day (day 0), a known therapeutic agent for benign prostatic hyperplasia, i.e., chlormadinone acetate (anti-androgen agent: 6-chloro-3,20-dioxopregna-4,6-dien-17,alpha-yl acetate; suspended or dissolved in 0.5% hydroxypropylmethyl cellulose (0.5% HPMC) solvent) was forcedly administered orally once a day (3 test substance-administered groups: 30 mg/kg·day, 100 mg/kg·day, 300 mg/kg·day; n=10 mice/group). Two weeks after the beginning of administration (day 14), the model animals were sacrificed by over anesthesia, and the implanted tissues (rat fetal urogenital sinus-derived tissues) were removed and weighed (weights from the test substance-administered groups). As a control experiment, for 2 weeks after implantation, model animals (solvent-administered group: n=10 mice) were forcedly administered with a solvent (0.5% HPMC), no chlormadinone acetate dissolved therein, once a day orally. […] The inhibition rate to weight increase of the subcutaneously-implanted, rat fetal urogenital sinus-derived tissues was calculated according to the formula shown in Equation 1, with respect to each chlormadinone acetate-administered group, and the effects of the therapeutic agent for benign prostatic hyperplasia (chlormadinone acetate) upon these tissues were then evaluated. […]

[2] = tested on: rat fetal urogenital sinus-derived tissues implanted beneath the prostatic capsules; test: Inhibition of weight increase of rat fetal urogenital sinus-derived tissue implanted beneath the prostatic capsule of rats (prostatic stromal hyperplasia model); format: in vivo, male SD rats
Text: Under ether anesthesia, fetuses were removed from female SD rats that were 20 days pregnant. From the removed fetuses, the urogenital sinuses were removed under ether anesthesia while observing through a stereoscopic microscope. The urogenital sinuses were stored in a sterilized culture medium until implantation. The prostate glands were exposed by midline incision using 6-week old male SD rats under ether anesthesia. The capsule of prostate right ventral lobe was slightly cut open while observing through a stereoscopic microscope. Two of the fetal urogenital sinuses obtained in (1) above were implanted using a forceps beneath the capsule, and the incision in the capsule was sutured. The cut abdominal skin then closed and the rats were reared for 2 to 8 weeks in normal rearing cages (Rat Bracket Cages, 3 to 4 rats/cage) under the following conditions: • Temperature: 20 to 26° C. • Humidity: 30 to 70% • Lighting hours: 12-hour light-dark cycle; light-on at 8 am and light-out at 8 pm • Feed and feeding method: solid feed for mouse, MF (irradiated), ad libitum • Water and watering method: tap water, ad libitum (3) Weighing of Implanted Tissue (Rat Fetal Urogenital Sinus-derived Tissue) Animal models for prostatic stromal hyperplasia of the present invention were prepared according to the methods described in Examples 2 (1) and (2) by implanting the urogenital sinuses of rat fetuses (20 days of intrauterine life) beneath the capsules of prostate ventral lobes of 6-week-old male SD rats. […] The rate inhibition to weight increase of the rat fetal urogenital sinus-derived tissues implanted beneath the prostatic capsules was calculated according to the formula shown in Equation 1 above, and the effects of the therapeutic agent on benign prostatic hyperplasia (chlormadinone acetate) were then evaluated. • Experiment (2): Animal models for prostatic stromal hyperplasia prepared as above were reared under the conditions described in Example 2 (2) for 3 weeks (until day 21) from the implantation day (day 0). […]

CC(=O)O[C@]1(C(C)=O)CC[C@H]2[C@@H]3C=C(Cl)C4=CC(=O)CC[C@]4(C)[C@H]3CC[C@@]21C [chlormadinone acetate, 6-chloro-3,20-dioxopregna-4,6-dien-17,alpha-yl acetate]
Rate of inhibition (%) to weight increase of implanted tissue ([1]; 30 mg/kg·day orally once a day for 2 weeks from implantation day): 21.8% | Rate of inhibition (%) to weight increase of implanted tissue ([1]; 100 mg/kg·day orally once a day for 2 weeks from implantation day): 39.5% | Rate of inhibition (%) to weight increase of implanted tissue ([1]; 300 mg/kg·day orally once a day for 2 weeks from implantation day): 38.8% | Effect on tissue weight increase (in words) ([1]; oral, 2 weeks of rearing after implantation, subcutaneous implant in nude mice): significantly inhibits the tissues weight increase | Rate of inhibition (%) to weight increase of implanted tissue ([2]; Experiment (1): 10 mg/kg·day orally for 3 weeks from implantation date, tissue weighed day 21): 30.7% | Rate of inhibition (%) to weight increase of implanted tissue ([2]; Experiment (2): 10 mg/kg·day orally for 3 weeks from 3 weeks after implantation (day 21 to day 42), tissue weighed day 42): 67.0% | Effect on tissue weight increase (in words) ([2]; Experiments (1) and (2), 10 mg/kg·day oral, implant beneath prostatic capsule of rats): significantly inhibits the tissue weight increase
